Experimental data as given in patent publication US20110237606A1, “3-Deazaneplanocin Derivatives” (AGENCY OF SCIENCE, TECHNOLOGY AND RESEARCH, priority 2008, published 2011).
Counter-ions that a name gives are not always drawn.

Key:
[1] = system: HCT-116 colorectal carcinoma xenograft; assay: In vivo efficacy in mouse HCT-116 colorectal carcinoma xenograft model
Experimental: The in vivo efficacy and toxicity of D3 was evaluated in a mouse HCT-116 colorectal carcinoma xenograft model.
Female athymic BALB/c nude mice (ARC, West Australia), 18-20 weeks of age, are fed with sterilized tap water (ad libitum water) and irradiated standard rodent diet consisting of: 19% protein, 5% fat, and 5% fiber. Mice are housed in individual ventilated cages on 12-hour light cycle at 21-22° C. and 40-60% humidity. Biological Resource Centre, Biopolis (BRC) complies with the recommendations of the guide for care and use of Laboratory Animals with respect to restraint, husbandry, surgical procedures, feed and fluid regulation, and veterinary care. The animal cares and use program (#070276) at BRC was Institutional Animal Care and Use Committee (IACUC) accredited.
D3 was provided in powder form, dissolved in 10% DMSO in sterile 1×PBS and stored in −20° C. Every mouse will receive a dose of 30-60 mg per kilogram body weight by intraperitoneal injection (ip).
Mice were implanted subcutaneously in the left flank with 5×10^6 cells of HCT-116 parental human colon carcinoma. The tumors were allowed to grow for 8 days and thereafter monitored every 2-3 days by caliper.
On the day 1, nude mice were divided into 2 groups according to tumor volume to ensure tumor volume evenly distributed into each group. Each group comprised 7 animals. Drug treatment was initiated on day 1. D3 is administered ip at doses of 30 mg/kg for 7 days followed by 60 mg/kg for another 5 days on once-a-day basis. Another group of mice received receive only vehicle by ip route. […] The study was terminated on Day 14.
Estimated tumor volume was calculated using the formula:
Tumor volume (mm^3)=(w^2×l)/2
where w=width and l=length in mm of an HCT-116 carcinoma.
Compound efficacy was assessed by the tumor growth inhibition (TGI) method in which tumor volume of treatment groups are compared to the vehicle controls. The percent tumor growth inhibition (% TGI) is calculated as follows:
% TGI=[…]×100
where: • Cday 1=median tumor volume for the control group (vehicle) on day 1 • Cday a=median tumor volume for the control group (vehicle) on day a • Tday a=median tumor volume for a treatment group on day a Animals classified as NTRD (non-treatment-related deaths) were excluded from TGI calculations.
The two sample t-test was used to determine the statistical significance of body weight changes and tumor volumes between groups. Statistical analyses were conducted at a p level of 0.05. SPSS was used for all statistical analyses and graphic presentations.

[2] = Maximum tolerated dose in vivo; details: compared to DZNep
[3] = system: HCT115 ER-E2F1 cells; assay: E2F1-induced apoptosis assay (ER-E2F1 activated by 4-OHT), FACS subG1; format: cell-based
Description: Two assays were used to measure the compound's activity in induce apoptosis. The first assay measures the activity of compound to activate E2F1-induced apoptosis. In this assay, transcription factor E2F1 was engineered with ER receptor ligand binding domain. Addition of 4-OHT will be able to activate ER-E2F1 complex activity.
Fluorescence activated cell sorting (FACS) also known as flow cytometry is the technique used to determine apoptosis in this set of experiments. Apoptosis is indicated by cell populations with DNA content in the subG1 range. To determine the activity of these compounds, the inventors used HCT115 ER-E2F1 cells to determine the activity of the compound in inducing E2F1-dependent apoptosis. In this assay, addition of 4-OHT ligand will activate E2F1. DZNep has been show previously to activate OHT-induced apoptosis in this system.

Structure (SMILES) | tumor volume versus vehicle group ([1]; D3 ip 30 mg/kg 7 days then 60 mg/kg 5 days, p=0.033) | tumor growth inhibition ([1]; D3 ip 30 then 60 mg/kg, day 7) | tumor growth inhibition ([1]; D3 ip 30 then 60 mg/kg, day 9) | tumor growth inhibition ([1]; D3 ip 30 then 60 mg/kg, day 12) | tumor growth inhibition ([1]; D3 ip 30 then 60 mg/kg, end point day 14) | maximum tolerated dose (MTD) [2] | ability to cause apoptosis in the induction of E2F1-dependent apoptosis ([3]; compared with DZNep) | E2F1 Induced apoptosis (+4-OHT) % Apoptosis ([3]; with 4-OHT (value in parentheses)) | tumor growth inhibition ([1]; I3 30 mg/kg, day 6) | tumor growth inhibition ([1]; I3 30 mg/kg, day 8) | tumor growth inhibition ([1]; I3 30 mg/kg, day 10) | tumor growth inhibition ([1]; I3 30 mg/kg, day 13) | tumor growth inhibition ([1]; I3 30 mg/kg, end point day 14) | tumor volume versus vehicle group ([1]; I3 30 mg/kg, p=0.037) | tumor volume versus vehicle group ([1]; I3 60 mg/kg, p=0.000) | tumor growth inhibition ([1]; I3 60-80 mg/kg, day 6) | tumor growth inhibition ([1]; I3 60-80 mg/kg, day 8) | tumor growth inhibition ([1]; I3 60-80 mg/kg, day 10) | tumor growth inhibition ([1]; I3 60-80 mg/kg, day 13) | tumor growth inhibition ([1]; I3 60-80 mg/kg, end point day 14)
COCC1=C[C@@H](n2cnc3c(N)ncnc32)[C@H](O)[C@@H]1O [Compound 25, (1S,2R,5R)-5-(6-amino-9H-purin-9-yl)-3-(methoxymethyl)cyclopent-3-ene-1,2-diol hydrochloride] | statistically significantly smaller | about 49% | ~56% | ~54% | ~54% | higher | as effectively as DZNep | 60% |  |  |  |  |  |  |  |  |  |  |  | 
Nc1ncnc2c1ncn2[C@@H]1CC[C@@H](O)[C@H]1O [Compound I3, (1R,2S,3R)-3-(6-amino-9H-purin-9-yl)cyclopentane-1,2-diol] |  |  |  |  |  |  |  |  | about 40% | ~43% | ~31% | ~35% | ~34% | statistically significantly smaller | statistically significantly smaller | about 50% | ~65% | ~60% | ~68% | ~63%
